Assay results: US20030083271A1, “Topoisomerase I selective cytotoxic sugar derivatives of indolopyrrolocarbazoles” (priority 2001, published 2003)

Legend:
[1] = system: P388 murine leukemia cells; assay: In vitro cell-based cytotoxicity, parental P388 cells; settings: Mus musculus, 72 h, median cytotoxic concentration, 3 days continuous exposure
Procedure, shortened: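 P388 cells plated at 8,000 cells/well, compounds serially diluted 24 h later and incubated 72 h at 37° C. Viability by MTS (333 μg/ml final) with phenazine methosulfate (25 μM final), absorbance at 492 nm; IC50 is concentration reducing absorbance to 50% of untreated control.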

[2] = target: T1, purified human topoisomerase I (Homo sapiens, UniProt P11387); assay: Topoisomerase I-mediated single strand DNA break induction (in vitro); format: biochemical; settings: median effect concentration for inducing single-strand breaks in the DNA substrate; read-out: Topo I EC50
T1 construct: purchased Topogen
T1 sequence (P11387 1-765): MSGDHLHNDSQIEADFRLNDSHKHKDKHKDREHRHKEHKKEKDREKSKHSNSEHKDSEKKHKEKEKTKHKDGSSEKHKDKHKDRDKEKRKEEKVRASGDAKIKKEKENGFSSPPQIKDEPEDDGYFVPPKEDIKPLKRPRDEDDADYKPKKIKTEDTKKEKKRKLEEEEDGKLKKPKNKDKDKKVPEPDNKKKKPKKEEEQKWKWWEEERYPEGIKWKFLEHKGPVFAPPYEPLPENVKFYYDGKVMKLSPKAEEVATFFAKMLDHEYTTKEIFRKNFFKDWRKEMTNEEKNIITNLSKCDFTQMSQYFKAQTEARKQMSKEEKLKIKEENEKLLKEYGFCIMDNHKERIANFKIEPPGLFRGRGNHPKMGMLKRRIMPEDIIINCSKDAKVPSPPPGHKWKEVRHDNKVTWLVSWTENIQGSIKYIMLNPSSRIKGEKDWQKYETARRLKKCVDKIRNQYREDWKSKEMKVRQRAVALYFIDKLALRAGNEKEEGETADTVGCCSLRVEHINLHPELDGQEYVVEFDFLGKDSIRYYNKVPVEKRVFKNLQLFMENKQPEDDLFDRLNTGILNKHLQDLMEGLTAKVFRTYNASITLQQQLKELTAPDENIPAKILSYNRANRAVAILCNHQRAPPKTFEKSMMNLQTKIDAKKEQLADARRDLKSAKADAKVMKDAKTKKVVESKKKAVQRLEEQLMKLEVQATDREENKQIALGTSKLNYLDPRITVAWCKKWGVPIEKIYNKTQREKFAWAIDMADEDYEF
Procedure, shortened: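 Supercoiled PM2 DNA incubated with compound dilutions and 1000 units purified human topoisomerase I, 30 min at 37° C; stopped with SDS/proteinase K. Products separated on ethidium-stained agarose gel, quantified by densitometry as % single-strand breaks; EC50 interpolated from dose-effect curve.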

Compound | IC50 [1] [nM] | EC50 [2] [nM]
O=C1NC(=O)c2c1c1c3cc(F)ccc3[nH]c1c1c2c2cc(F)ccc2n1[C@@H]1O[C@H](CF)[C@@H](F)[C@H](O)[C@H]1O [Example 27] | 4 | 150
O=C1NC(=O)c2c1c1c3cc(F)c(F)cc3sc1c1c2c2cc(F)c(F)cc2n1[C@@H]1O[C@H](CF)C[C@H](O)[C@H]1O [Example 9, 12-[4,6-Dideoxy-6-fluoro-β-D-glucopyranosyl]-2,3,9,10-tetrafluoro-5H, 13H-benzo[b]thienyl[2,3-a]pyrrolo[3,4-c]carbazole-5,7(6H)-dione] | 35 | 230
O=C1NC(=O)c2c1c1c3cc(F)ccc3[nH]c1c1c2c2cc(F)ccc2n1[C@@H]1O[C@H](CO)[C@@H](F)[C@H](O)[C@H]1O [Example 24, 12-[4-Deoxy-4-fluoro-β-D-glucopyranosyl]-3,9-difluoro-12,13-dihydro-5H-indolo[2,3-a]pyrrolo[3,4-c]carbazole-5,7(6H)-dione] | 2 | 20
O=C1NC(=O)c2c1c1c3cc(F)c(F)cc3sc1c1c2c2cc(F)c(F)cc2n1[C@@H]1O[C@H](CF)[C@@H](F)[C@H](O)[C@H]1O [Example 26, 12-[4,6-Difluoro-4,6-dideoxy-β-D-glucopyranosyl]-2,3,9,10-tetrafluoro-5H, 13H-benzo[b]thienyl[2,3-a]pyrrolo[3,4-c]carbazole-5,7(6H)-dione] | 11 | 130
O=C1NC(=O)c2c1c1c3cc(F)c(F)cc3sc1c1c2c2cc(F)c(F)cc2n1[C@@H]1O[C@H](CO)[C@@H](F)[C@H](O)[C@H]1O [Example 33, 12-[4-Deoxy-4-fluoro-β-D-glucopyranosyl]-2,3,9,10-tetrafluoro-5H,13H-benzo[b]thienyl[2,3-a]pyrrolo[3,4-c]carbazole-5,7(6H)-dione] | < 3 | 50
